Results on 13 compounds are retold here after patent publication US20110217300A1, “Quinazolinone Compounds and Methods of Use Thereof” (priority 2007, published 2011).

Where two headings read alike, the source gives them in different places.

One test deals with T1, HsEg5 (Homo sapiens, UniProt P52732).
T1 sequence (P52732 18-359 limits assumed): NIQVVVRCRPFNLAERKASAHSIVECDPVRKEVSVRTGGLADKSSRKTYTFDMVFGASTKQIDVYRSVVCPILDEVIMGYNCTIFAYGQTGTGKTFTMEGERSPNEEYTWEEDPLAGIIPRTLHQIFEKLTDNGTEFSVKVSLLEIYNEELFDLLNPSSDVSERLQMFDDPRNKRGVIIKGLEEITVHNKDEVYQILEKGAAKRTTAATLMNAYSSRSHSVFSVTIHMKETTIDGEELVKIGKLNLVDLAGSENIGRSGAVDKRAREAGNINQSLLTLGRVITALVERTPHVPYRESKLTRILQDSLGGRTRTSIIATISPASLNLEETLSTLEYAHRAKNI
The test is described as follows: Fluorescence detection of HsEg5 ATPase activity (ADP Quest, automated). Format: biochemical. The protocol:
Purified HsEg5 motor fragment was activated by mixture with preformed MT polymer (Cytoskeleton, Denver, Colo.) at room temperature for 20 minutes. MT activated ATPase activity was measured using ADP Quest (DiscoverX, Fremont, Calif.) in which a coupled-enzyme assay can translate accumulation of ADP into detectable resorufin signal (FIG. 1A). Fluorescence was measured at λEx=535 nm and λEm=590 nm on a Wallac Victor 2 plate reader (Perkin-Elmer Life Sciences, Boston, Mass.). Reagent A and B from ADP Quest kit were aliquoted and frozen in −20° C. before use. A standard curve was determined using the provided ADP reagent in the reaction buffer that consisted of 50 mM Pipes (pH7.0), 5.0 mM MgCl2, 20 μM paclitaxel and […]. The same buffer was used for Km determination with HsEg5 concentration of 10 nM.
For inhibitor screening, 4 μL of compounds were incubated with 10 μL of MT-activated HsEg5 such that the final concentrations for compound range from 100 μM to 5 nM (1 to 3 serial dilutions, final concentration) and final concentration for HsEg5 is 10 nM. The mixture was incubated at room temperature for 10 minutes with mild shaking. The screening assay contained 0.3% DMSO in all reaction wells. We used wells containing only DMSO as negative controls and wells without ATP as background. Addition of 6 μL ATP (final concentration of 20 μM) initiated the ATP hydrolysis reaction. The 20 μL-reaction was allowed to proceed at room temperature for 10 minutes before addition of 10 μL of reagent A and 20 μL of reagent B. After 20-minute development at room temperature, the fluorescence was measured and data analysis was performed using GraphPad Prism version 3.0 (GraphPad Software, San Diego, Calif.)
For the purpose of high-throughput screening, we automated the fluorescence assay using a Sciclone ALH3000 (Caliper Life Sciences, Hopkinton, Mass.) and Multidrop 384 (Thermo Electron Corp, Waltham, Mass.). First, compound dilution plates for screening (at 10 μM or 1 μM) and ICso determination (10 data points from 100 μM to 5 nM) were made in Corning polypropylene V-bottom 96-well plates. In both cases, the 1st and 7th column contained background (No ATP addition) and negative control (DMSO only). For screening compounds at 10 μM or 1 μM, […] of each compound at 50 μM or 5 μM were used in a 20 μL assay reaction. For IC50 determination, the mother compound plate contained 24 μL of tested compound at stock concentration of 30 mM. 6 μL of each test compound in 30 mM was added to each well in the column 2 and followed by 1:3 serial dilutions in DMSO with the Sciclone ALH3000. 234 μL of assay buffer was then added using a Multidrop 384. Then 4 μL of diluted compounds was used in 20 μL-reaction. The final concentration was a 1:300 dilution of the original stock. Second, a reagent source plate was prepared with three rows designated to MT-activated HsEg5, Reagent A and Reagent B respectively. MTs were diluted with assay buffer and polymerized at room temperature for 10 minutes. Just before use, HsEg5 protein was thawed on ice and activated by addition of MT polymers at room temperature for 20 minutes. HsEg5/MT was then added to Row A of the reagent source plate. The final assay concentration was 10 nM HsEg5 and 500 nM MTs. Reagent A and B were stored at −20° C. and thawed at room temperature followed by transferring to rows B & C of the reagent source plate. Third, ATP substrate plate was prepared by transferring 80 μM ATP solution to each well of a V-shape 96-well plate except the wells in the first row where assay buffer was added instead to have no-ATP blanks. The final concentration for ATP in the assay was 20 μM.
The assay was programmed on Sciclone ALH3000 with the following procedures: 1) Addition of 4 μL compounds to the assay plate, followed by addition of 10 μL of MT-activated HsEg5. […]

The subject of a further test is NCI-H460. The test can be described thus: MTS cell viability assay. It is filed as cell-based, human. The settings on record: Homo sapiens, NCI-H460, 72 h. The protocol: Cell viability was determined by measuring the activity of dehydrogenase enzymes in metabolically active cells using a tetrazolium compound, MTS. The assay was performed as described in Promega Technical Bulletin No. 169 (CellTiter 96 Aqueous Non-Radioactive Cell Proliferation Assay). Two human cancer cell lines were assayed (see, Table 1). Cells were maintained at 37° C. and 5% CO2 in DMEM media (4.5 g/L glucose) supplemented with 10% heat-inactivated FBS, 10 mM L-glutamine, and 10 mM Hepes pH 7.5. Briefly, cells were seeded in 96-well plates as set forth in Table 1 and incubated for 16-24 hours. Candidate compounds were serially diluted in DMSO, further diluted in cell culture media, and then added to cells (final DMSO concentration of 0.33%). Cells were incubated in the presence of candidate compound for 72 hours. MTS stock solution (MTS 2 gm/L, PMS […] in PBS) was added to the cells (final concentration MTS […] and PMS 7.67 mg/L) and incubated for 4 hours. SDS was added to a final concentration of 1.4% and absorbance at 490 nm was measured within two hours using a plate reader. […] GI50 values were given in Table 2 for the compounds listed. The Compound Numbers in Table 2 correspond to the numbers listed parenthetically in the Example titles. Where multiple measurements were made by different technicians, both values are given.
Cell viability was determined for N-(3-amino-propyl)-3-chloro-N—[(R)-1-(7-chloro-4-oxo-3-phenylamino-3,4-dihydro-quinazolin-2-yl)-but-3-ynyl]-2-fluoro-benzamide (compound I of Table 2). The cell viability assay of Example 105 was used. GI50 was determined using a variety of cell lines. Cells were plated at 100-5000 cells per well. At least 2 replicates were performed. Where multiple measurements were made by different technicians, both values are given.
Background: Tetrazolium dyes change colour on reduction, which living cells bring about.

The next test deals with A549. The test can be described thus: MTS cell viability assay. Format: cell-based. The settings on record: Homo sapiens, A549 non small cell lung, 72 hours, read-out: MTS NCI A549 GI50. The protocol: Two human cancer cell lines were assayed (see, Table 1). Cells were maintained at 37° C. and 5% CO2 in DMEM media (4.5 g/L glucose) supplemented with 10% heat-inactivated FBS, 10 mM L-glutamine, and 10 mM Hepes pH 7.5. Briefly, cells were seeded in 96-well plates as set forth in Table 1 and incubated for 16-24 hours. Candidate compounds were serially diluted in DMSO, further diluted in cell culture media, and then added to cells (final DMSO concentration of 0.33%). Cells were incubated in the presence of candidate compound for 72 hours. […] The Compound Numbers in Table 2 correspond to the numbers listed parenthetically in the Example titles.

[1] abbreviates: read-out: MTS NCI H460 GI50, NCI-H460 non small cell lung, 72 hours.

`CC(C)C(c1nc2cc(Cl)ccc2c(=O)n1Nc1ccccc1)N(CCCN)C(=O)c1ccc(F)cc1` (stereo not shown) [Compound 43, N-(3-Aminopropyl)-N-[1-(3-anilino-7-chloro-4-oxo-3,4-dihydroquinazolin-2-yl)-2-methylpropyl]-4-fluorobenzamide]: the IC50 (as a rule, the concentration that gives 50% inhibition) on HsEg5 came out at 0.833 µM. In addition, the GI50 – broadly, the concentration that inhibits growth by half – with NCI-H460 (read-out: MTS NCI H460 GI50) is 2.81 µM; in the test on A549, 3.49 µM.

For the compound `CCC(c1nc2cc(Cl)ccc2c(=O)n1Nc1ccccc1)N(CCN)C(=O)c1ccc(C)cc1` (stereo not shown) [Compound 61, N-(2-Aminoethyl)-N-[1-(3-anilino-7-chloro-4-oxo-3,4-dihydroquinazolin-2-yl)propyl]-4-methylbenzamide], it took 3.89 µM to reach half-maximal inhibition at HsEg5 (IC50). Besides, the figures for the GI50 in the test with NCI-H460 (read-out: MTS NCI H460 GI50) and with A549 were 12.5 µM and 14.2 µM, respectively.

In the case of `CC[C@H](c1nc2cc(Cl)ccc2c(=O)n1Nc1ccccc1)N(CCCN)Cc1ccccc1` [Compound 70, 2-{(1R)-1-[(3-aminopropyl)(benzyl)amino]propyl}-3-anilino-7-chloro-3H-quinazolin-4-one], the GI50 with NCI-H460 (setting [1]) was determined as 4.23 µM; in the test on A549 (A549, 72 h), 6.91 µM.

With `CCCCC(c1nc2cc(Cl)ccc2c(=O)n1Nc1ccccc1)N(CCCN)C(=O)c1ccc(C)cc1` (stereo not shown) [Compound 59, N-(3-Aminopropyl)-N-[1-(3-anilino-7-chloro-4-oxo-3,4-dihydroquinazolin-2-yl)pentyl]-4-methylbenzamide], the IC50 against HsEg5 was 52.3 µM. Also, in the test with NCI-H460 (read-out: MTS NCI H460 GI50), the GI50 is 4.24 µM.

Regarding `CC[C@H](c1nc2cc(Cl)ccc2c(=O)n1Nc1ccccc1)N(CCCN)S(=O)(=O)c1c(C)nn(C)c1C` [Compound 33, N-(3-Aminopropyl)-N-[(1R)-1-(3-anilino-7-chloro-4-oxo-3,4-dihydroquinazolin-2-yl)propyl]-1,3,5-trimethyl-1H-pyrazole-4-sulfonamide], at HsEg5, the IC50 worked out at 4.22 µM. Also, the GI50 in the test with NCI-H460 (read-out: MTS NCI H460 GI50) was 10.4 µM.

`CC[C@H](c1nc2cc(Cl)ccc2c(=O)n1Nc1ccccc1)N(CCCN)Cc1ccc(C)cc1` [Compound 68, 2-{(R)-1-[(3-Amino-propyl)-(4-methyl-benzyl)-amino]-propyl}-7-chloro-3-phenylamino-3H-quinazolin-4-one]: the GI50 was 2.59 µM in the test on NCI-H460 (setting [1]) and 3.86 µM with A549 (A549, 72 h).

As for `C#CC[C@H](c1nc2cc(Cl)ccc2c(=O)n1Nc1ccccc1)N(CCCN)Cc1ccc(C)cc1` [Compound 66, 2-{(R)-1-[(3-Amino-propyl)-(4-methyl-benzyl)-amino]-but-3-ynyl}-7-chloro-3-phenylamino-3H-quinazolin-4-one], the GI50 in the test on NCI-H460 (setting [1]) was determined as 3.2 µM; with A549 (A549, 72 h) it was 2.35 µM.

As for `C#CC[C@H](c1nc2cc(Cl)ccc2c(=O)n1Nc1ccccc1)N(CCCN)S(=O)(=O)c1ccc(C)cc1` [Compound 30, N-(3-amino-propyl)-N—[(R)-1-(7-chloro-4-oxo-3-phenylamino-3,4-dihydro-quinazolin-2-yl)-but-3-ynyl]-4-methyl-benzenesulfonamide], the GI50 in the test on NCI-H460 (setting [1]) is 12 µM; in the test with A549 (A549, 72 h), 7.1 µM.

In turn, `CCC(c1nc2cc(Cl)ccc2c(=O)n1Nc1ccccc1)N(CCN)C(=O)c1ccc(Cl)cc1` (stereo not shown) [Compound 60, N-(2-Aminoethyl)-N-[1-(3-anilino-7-chloro-4-oxo-3,4-dihydroquinazolin-2-yl)propyl]-4-chlorobenzamide] registered an IC50 against HsEg5 of 3.99 µM. In addition, the GI50 with NCI-H460 (read-out: MTS NCI H460 GI50) came to 10 µM.

Turning to `CSCCC(c1nc2cc(Cl)ccc2c(=O)n1Nc1ccccc1)N(CCCN)C(=O)c1cccc(Cl)c1F` (stereo not shown) [Compound 38, N-(3-Aminopropyl)-N-[1-(3-anilino-7-chloro-4-oxo-3,4-dihydroquinazolin-2-yl)-3-(methylthio)propyl]-3-chloro-2-fluorobenzamide], it took 4.59 µM to reach half-maximal inhibition at HsEg5 (IC50). Further, the GI50 in the test with NCI-H460 (setting [1]) amounted to 3.59 µM.

Turning to `Cc1ccc(C(=O)N(CCCN)C(c2nc3cc(Cl)ccc3c(=O)n2Nc2ccccc2)C(C)C)cc1F` (stereo not shown) [Compound 46, N-(3-Aminopropyl)-N-[1-(3-anilino-7-chloro-4-oxo-3,4-dihydroquinazolin-2-yl)-2-methylpropyl]-3-fluoro-4-methylbenzamide], 0.246 µM corresponded to half-maximal inhibition against HsEg5 (IC50). In the test with NCI-H460 (setting [1]), the GI50 is 0.678 µM.

As to `CC[C@H](c1nc2cc(Cl)ccc2c(=O)n1Nc1ccccc1)N(CCCN)Cc1ccc(F)c(C)c1` [Compound 69, 2-{(1R)-1-[(3-Aminopropyl)(4-fluoro-3-methylbenzyl)amino]propyl}-3-anilino-7-chloro-3H-quinazolin-4-one], the GI50 was 3.77 µM with NCI-H460 (setting [1]) and 3.9 µM with A549 (A549, 72 h).

As for `CC[C@H](c1nc2cc(Cl)ccc2c(=O)n1Nc1ccccc1)N(CCCN)S(=O)(=O)c1cccc(F)c1` [Compound 31, N-(3-Aminopropyl)-N-[(1R)-1-(3-anilino-7-chloro-4-oxo-3,4-dihydroquinazolin-2-yl)propyl]-3-fluorobenzenesulfonamide], at HsEg5, inhibition was half-maximal at 1.43 µM (IC50). Also, the concentration for 50% growth inhibition (GI50) in the test on A549 is 10.8 µM.
